Measurements reported in US20250230193A1, “CYCLIC COMPOUND HAVING SELECTIVE KRAS INHIBITORY EFFECT ON HRAS AND NRAS” (CHUGAI SEIYAKU KABUSHIKI KAISHA, priority 2022, published 2025).

Tests used:
[1] = target: GDP-bound HRAS wild-type protein (Homo sapiens, UniProt P01112); assay: Binding to HRAS by surface plasmon resonance (SPR), Single Cycle Kinetics; settings: KD ratio HRAS/KRAS, SPR
[2] = target: GDP-bound NRAS wild-type protein (Homo sapiens, UniProt P01111); assay: Binding to NRAS by surface plasmon resonance (SPR), Single Cycle Kinetics; settings: KD ratio NRAS/KRAS, SPR
Chain of GDP-bound NRAS wild-type protein (P01111 whole entry): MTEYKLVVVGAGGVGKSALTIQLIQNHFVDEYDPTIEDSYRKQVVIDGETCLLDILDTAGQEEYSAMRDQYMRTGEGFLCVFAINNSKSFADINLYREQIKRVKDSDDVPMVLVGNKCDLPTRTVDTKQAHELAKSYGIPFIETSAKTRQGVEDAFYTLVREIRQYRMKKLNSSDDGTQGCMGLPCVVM

Chain of GDP-bound HRAS wild-type protein (P01112 whole entry): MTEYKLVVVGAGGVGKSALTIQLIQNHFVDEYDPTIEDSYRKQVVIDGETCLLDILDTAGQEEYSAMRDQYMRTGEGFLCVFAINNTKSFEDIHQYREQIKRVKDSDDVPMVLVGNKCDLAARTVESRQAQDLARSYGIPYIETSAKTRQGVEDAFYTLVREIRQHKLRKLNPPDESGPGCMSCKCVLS

Row | SMILES | HRAS/KRAS (ratio of KD value with respect to GDP-bound HRAS wild-type protein to KD value with respect to KRAS) [1] | NRAS/KRAS (ratio of KD value with respect to GDP-bound NRAS wild-type protein to KD value with respect to KRAS) [2]
1 | CCO[C@@H]1C[C@H]2C(=O)NC3(CCC3)C(=O)N(C)[C@@H](C3CCCC3)C(=O)N(CCC3CCC3)[C@H](C(=O)N(C)C)CC(=O)N(C)[C@@H](CC)C(=O)N[C@@H]([C@@H](C)CC)C(=O)N(C)CC(=O)N(C)[C@H]3CCCCCN(C3=O)[C@@H](Cc3ccc(C(F)(F)F)cc3)C(=O)N(C)CC(=O)N[C@@H](CCc3cc(F)c(C(F)(F)F)c(F)c3)C(=O)N2C1 [PP0635] | B (a compound having 3 or more and less than 10 is denoted as B) | B (a compound having 3 or more and less than 10 is denoted as B)
2 | CCO[C@@H]1C[C@H]2C(=O)NC3(CCC3)C(=O)N(C)[C@@H](C3CCCC3)C(=O)N(CCC3CCCC3)[C@H](C(=O)N(C)C)CC(=O)N(C)[C@@H](CC)C(=O)N[C@@H]([C@@H](C)CC)C(=O)N(C)CC(=O)N(C)[C@H]3CCCCCN(C3=O)[C@@H](Cc3ccc(C(F)(F)F)cc3)C(=O)N(C)CC(=O)N[C@@H](CCc3cc(F)c(C(F)(F)F)c(F)c3)C(=O)N2C1 [PP0636] | A (a compound having 10 or more and less than 20 is denoted as A) | A (a compound having 10 or more and less than 20 is denoted as A)
3 | CCO[C@@H]1C[C@H]2C(=O)NC3(CCC3)C(=O)N(C)[C@@H](C3CCCC3)C(=O)N(CCc3ccccc3)[C@H](C(=O)N(C)C)CC(=O)N(C)[C@@H](CC)C(=O)N[C@@H]([C@@H](C)CC)C(=O)N(C)CC(=O)N(C)[C@H]3CCCCCN(C3=O)[C@@H](Cc3ccc(C(F)(F)F)cc3)C(=O)N(C)CC(=O)N[C@@H](CCc3cc(F)c(C(F)(F)F)c(F)c3)C(=O)N2C1 [PP0637] | B (a compound having 3 or more and less than 10 is denoted as B) | B (a compound having 3 or more and less than 10 is denoted as B)
4 | CCO[C@@H]1C[C@H]2C(=O)NC3(CCC3)C(=O)N(C)[C@@H](C3CCCC3)C(=O)N(CC)[C@H](C(=O)N3CCOCC3)CC(=O)N(C)[C@@H](CC(C)C)C(=O)N[C@@H]([C@@H](C)CC)C(=O)N(C)CC(=O)N(C)[C@H]3CCCCCN(C3=O)[C@@H](Cc3ccc(C(F)(F)F)cc3)C(=O)N(C)CC(=O)N[C@@H](CCc3cc(F)c(C(F)(F)F)c(F)c3)C(=O)N2C1 [PP0638] | B (a compound having 3 or more and less than 10 is denoted as B) | B (a compound having 3 or more and less than 10 is denoted as B)
5 | CCCN1C(=O)[C@H](C2CCCC2)N(C)C(=O)C2(CCC2)NC(=O)[C@@H]2C[C@@H](OCC)CN2C(=O)[C@H](CCc2cc(F)c(C(F)(F)F)c(F)c2)NC(=O)CN(C)C(=O)[C@H](Cc2ccc(C(F)(F)F)cc2)N2CCCCC[C@@H](C2=O)N(C)C(=O)CN(C)C(=O)[C@H]([C@@H](C)CC)NC(=O)[C@H](CC(C)C)N(C)C(=O)C[C@H]1C(=O)N1CCOCC1 [PP0639] | B (a compound having 3 or more and less than 10 is denoted as B) | B (a compound having 3 or more and less than 10 is denoted as B)
6 | CCO[C@@H]1C[C@H]2C(=O)NC3(CCC3)C(=O)N(C)[C@@H](C3CCCC3)C(=O)N(CCC3CCC3)[C@H](C(=O)N3CCOCC3)CC(=O)N(C)[C@@H](CC(C)C)C(=O)N[C@@H]([C@@H](C)CC)C(=O)N(C)CC(=O)N(C)[C@H]3CCCCCN(C3=O)[C@@H](Cc3ccc(C(F)(F)F)cc3)C(=O)N(C)CC(=O)N[C@@H](CCc3cc(F)c(C(F)(F)F)c(F)c3)C(=O)N2C1 [PP0640] | B (a compound having 3 or more and less than 10 is denoted as B) | B (a compound having 3 or more and less than 10 is denoted as B)
7 | CCO[C@@H]1C[C@H]2C(=O)NC3(CCC3)C(=O)N(C)[C@@H](C3CCCC3)C(=O)N(CCC3CCCC3)[C@H](C(=O)N3CCOCC3)CC(=O)N(C)[C@@H](CC(C)C)C(=O)N[C@@H]([C@@H](C)CC)C(=O)N(C)CC(=O)N(C)[C@H]3CCCCCN(C3=O)[C@@H](Cc3ccc(C(F)(F)F)cc3)C(=O)N(C)CC(=O)N[C@@H](CCc3cc(F)c(C(F)(F)F)c(F)c3)C(=O)N2C1 [PP0641] | A (a compound having 10 or more and less than 20 is denoted as A) | A (a compound having 10 or more and less than 20 is denoted as A)
8 | CCO[C@@H]1C[C@H]2C(=O)NC3(CCC3)C(=O)N(C)[C@@H](C3CCCC3)C(=O)N(CCc3ccccc3)[C@H](C(=O)N3CCOCC3)CC(=O)N(C)[C@@H](CC(C)C)C(=O)N[C@@H]([C@@H](C)CC)C(=O)N(C)CC(=O)N(C)[C@H]3CCCCCN(C3=O)[C@@H](Cc3ccc(C(F)(F)F)cc3)C(=O)N(C)CC(=O)N[C@@H](CCc3cc(F)c(C(F)(F)F)c(F)c3)C(=O)N2C1 [PP0642] | B (a compound having 3 or more and less than 10 is denoted as B) | B (a compound having 3 or more and less than 10 is denoted as B)
9 | CCO[C@@H]1C[C@H]2C(=O)NC3(CCC3)C(=O)N(C)[C@@H](C3CCCC3)C(=O)N(CC)[C@H](C(=O)N(C)C)CC(=O)N(C)[C@@H](CC)C(=O)N[C@@H]([C@@H](C)CC)C(=O)N(C)CC(=O)N(C)[C@H]3CCCCN(C3=O)[C@@H](Cc3ccc(C(F)(F)F)cc3)C(=O)N(C)CC(=O)N[C@@H](CCc3cc(F)c(C(F)(F)F)c(F)c3)C(=O)N2C1 [PP0643] | B (a compound having 3 or more and less than 10 is denoted as B) | C (A compound having a KD ratio of 0.1 or more and less than 3 is denoted as C)
10 | CCCN1C(=O)[C@H](C2CCCC2)N(C)C(=O)C2(CCC2)NC(=O)[C@@H]2C[C@@H](OCC)CN2C(=O)[C@H](CCc2cc(F)c(C(F)(F)F)c(F)c2)NC(=O)CN(C)C(=O)[C@H](Cc2ccc(C(F)(F)F)cc2)N2CCCC[C@@H](C2=O)N(C)C(=O)CN(C)C(=O)[C@H]([C@@H](C)CC)NC(=O)[C@H](CC)N(C)C(=O)C[C@H]1C(=O)N(C)C [PP0644] | B (a compound having 3 or more and less than 10 is denoted as B) | C (A compound having a KD ratio of 0.1 or more and less than 3 is denoted as C)
11 | CCO[C@@H]1C[C@H]2C(=O)NC3(CCC3)C(=O)N(C)[C@@H](C3CCCC3)C(=O)N(CCC3CCC3)[C@H](C(=O)N(C)C)CC(=O)N(C)[C@@H](CC)C(=O)N[C@@H]([C@@H](C)CC)C(=O)N(C)CC(=O)N(C)[C@H]3CCCCN(C3=O)[C@@H](Cc3ccc(C(F)(F)F)cc3)C(=O)N(C)CC(=O)N[C@@H](CCc3cc(F)c(C(F)(F)F)c(F)c3)C(=O)N2C1 [PP0645] | B (a compound having 3 or more and less than 10 is denoted as B) | B (a compound having 3 or more and less than 10 is denoted as B)
12 | CCO[C@@H]1C[C@H]2C(=O)NC3(CCC3)C(=O)N(C)[C@@H](C3CCCC3)C(=O)N(CCC3CCCC3)[C@H](C(=O)N(C)C)CC(=O)N(C)[C@@H](CC)C(=O)N[C@@H]([C@@H](C)CC)C(=O)N(C)CC(=O)N(C)[C@H]3CCCCN(C3=O)[C@@H](Cc3ccc(C(F)(F)F)cc3)C(=O)N(C)CC(=O)N[C@@H](CCc3cc(F)c(C(F)(F)F)c(F)c3)C(=O)N2C1 [PP0646] | B (a compound having 3 or more and less than 10 is denoted as B) | C (A compound having a KD ratio of 0.1 or more and less than 3 is denoted as C)
13 | CCO[C@@H]1C[C@H]2C(=O)NC3(CCC3)C(=O)N(C)[C@@H](C3CCCC3)C(=O)N(CCc3ccccc3)[C@H](C(=O)N(C)C)CC(=O)N(C)[C@@H](CC)C(=O)N[C@@H]([C@@H](C)CC)C(=O)N(C)CC(=O)N(C)[C@H]3CCCCN(C3=O)[C@@H](Cc3ccc(C(F)(F)F)cc3)C(=O)N(C)CC(=O)N[C@@H](CCc3cc(F)c(C(F)(F)F)c(F)c3)C(=O)N2C1 [PP0647] | B (a compound having 3 or more and less than 10 is denoted as B) | C (A compound having a KD ratio of 0.1 or more and less than 3 is denoted as C)
14 | CCO[C@@H]1C[C@H]2C(=O)NC3(CCC3)C(=O)N(C)[C@@H](C3CCCC3)C(=O)N(CC)[C@H](C(=O)N3CCOCC3)CC(=O)N(C)[C@@H](CC(C)C)C(=O)N[C@@H]([C@@H](C)CC)C(=O)N(C)CC(=O)N(C)[C@H]3CCCCN(C3=O)[C@@H](Cc3ccc(C(F)(F)F)cc3)C(=O)N(C)CC(=O)N[C@@H](CCc3cc(F)c(C(F)(F)F)c(F)c3)C(=O)N2C1 [PP0648] | B (a compound having 3 or more and less than 10 is denoted as B) | B (a compound having 3 or more and less than 10 is denoted as B)
15 | CCCN1C(=O)[C@H](C2CCCC2)N(C)C(=O)C2(CCC2)NC(=O)[C@@H]2C[C@@H](OCC)CN2C(=O)[C@H](CCc2cc(F)c(C(F)(F)F)c(F)c2)NC(=O)CN(C)C(=O)[C@H](Cc2ccc(C(F)(F)F)cc2)N2CCCC[C@@H](C2=O)N(C)C(=O)CN(C)C(=O)[C@H]([C@@H](C)CC)NC(=O)[C@H](CC(C)C)N(C)C(=O)C[C@H]1C(=O)N1CCOCC1 [PP0649] | B (a compound having 3 or more and less than 10 is denoted as B) | C (A compound having a KD ratio of 0.1 or more and less than 3 is denoted as C)
